From patent US11814376B2, “Hepatitis b core protein modulators” (Assembly Biosciences, Inc., priority 2015, dated 2023)
Where a name gives a salt, the structure may show the parent alone.

Experiments:
[1] = tested on: HBV viral load in AD38 cells; assay: Viral load production in AD38 cells, quantitative PCR of the core sequence in supernatant; assay type: cell-based; settings: Hepatitis B virus, 144 h, 10 μM compound, 6 days at 37° C., supernatant qPCR, relative to DMSO control; read-out: AD38 Viral Load (%) (VL with cmpd/VL in DMSO control) at 10 μM
[2] = tested on: AD38 cells; assay: Viability of AD38 cells (Promega CellTiter-Glo); assay type: cell-based; settings: 10 μM compound, 6 days, CellTiter-Glo luminescence normalized to DMSO control (100%)
Procedure, shortened: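 AD38 cells were seeded at 50,000/well on collagen-coated plates and treated with compound added as a 10× solution in 10% DMSO for 6 days at 37° C. Viability was measured by CellTiter-Glo luminescence in tetracycline-free medium with 2% FBS and 1% DMSO, and expressed as percent of DMSO control.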

SMILES | activity at 10 µM [1] [%] | AD38 Viability Normalized Result (cmpd/DMSO %) at 10 μM [2] [%]
Cc1c(C(=O)NCc2cnc(-c3ccc(C(N)=O)cc3)s2)ccc2c1NC(=O)c1ccccc1S2(=O)=O [compound 1878, N-((2-(4-carbamoylphenyl)thiazol-5-yl)methyl)-9-methyl-11-oxo-10, 11-dihydrodibenzo [b, f] [1, 4] thiazepine-8-carboxamide 5,5-dioxide] | 1 | 103
O=C(NCc1cnc(-c2ccc(O)cn2)s1)c1ccc2c(c1)NC(=O)c1ccccc1S2(=O)=O [compound 1879, N-((2-(5-hydroxypyridin-2-yl)thiazol-5-yl)methyl)-11-oxo-10, 11-dihydrodibenzo [b, f] [1, 4] thiazepine-8-carboxamide 5,5-dioxide] | 7.2 | 104
O=C(NCc1cnc(-c2cc(O)ccn2)s1)c1ccc2c(c1)NC(=O)c1ccccc1S2(=O)=O [compound 1880, N-((2-(4-hydroxypyridin-2-yl)thiazol-5-yl)methyl)-11-oxo-10, 11-dihydrodibenzo [b, f] [1, 4] thiazepine-8-carboxamide 5,5-dioxide] | 6.7 | 104
N#Cc1ccc(-c2ncc(CNC(=O)c3ccc4c(c3)NC(=O)c3ccccc3S4(=O)=O)s2)nc1 [compound 1881] | 0.8 | 108
O=C(NCc1cnc(-c2nccs2)s1)c1ccc2c(c1)NC(=O)c1ccccc1S2(=O)=O [compound 1882] | 1 | 103
Nc1ccc(-c2ncc(CNC(=O)c3ccc4c(c3)NC(=O)c3ccccc3S4(=O)=O)s2)nc1 [compound 1886, N-((2-(5-aminopyridin-2-yl)thiazol-5-yl)methyl)-11-oxo-10, 11-dihydrodibenzo [b, f] [1, 4] thiazepine-8-carboxamide 5,5-dioxide] | 1.5 | 106
Nc1ccnc(-c2ncc(CNC(=O)c3ccc4c(c3)NC(=O)c3ccccc3S4(=O)=O)s2)c1 [compound 1888, N-((2-(4-aminopyridin-2-yl)thiazol-5-yl)methyl)-11-oxo-10,11-dihydrodibenzo [b, f] [1, 4] thiazepine-8-carboxamide 5,5-dioxide, TFA salt] | 1.2 | 100
CN(C)c1ccnc(-c2ncc(CNC(=O)c3ccc4c(c3)NC(=O)c3ccccc3S4(=O)=O)s2)c1 [compound 1889, N-((2-(4-(dimethylamino)pyridin-2-yl)thiazol-5-yl)methyl)-11-oxo-10,11-dihydrodibenzo [b, f] [1, 4] thiazepine-8-carboxamide 5,5-dioxide] | 4.6 | 98
O=C(NCc1cnc(-c2nccs2)s1)c1ccc2c(c1)NC(=O)c1ccccc1O2 [compound 1893] | 2 | 91
N#Cc1ccc(-c2ncc(CNC(=O)c3ccc4c(c3)NC(=O)c3cccc(F)c3S4(=O)=O)s2)cc1 [compound 1904] | 0.5 | 89
O=C(NCc1cnc(N2CCCCC2)s1)c1ccc2c(c1)NC(=O)c1ccccc1S2(=O)=O [compound 1905] | 0.3 | 109
O=C1CCN(c2ncc(CNC(=O)c3ccc4c(c3)NC(=O)c3ccccc3S4(=O)=O)s2)CC1 [compound 1906] | 7.8 | 89
O=C(NCc1cnc(N2CCCCCC2)s1)c1ccc2c(c1)NC(=O)c1ccccc1S2(=O)=O [compound 1907] | 0.5 | 85
O=C(NCc1cnc(N2CCCCC(O)C2)s1)c1ccc2c(c1)NC(=O)c1ccccc1S2(=O)=O (centres unmarked) [compound 1908] | 7 | 94
O=C1CCCCN(c2ncc(CNC(=O)c3ccc4c(c3)NC(=O)c3ccccc3S4(=O)=O)s2)C1 [compound 1909, 11-oxo-N-((2-(3-oxoazepan-1-yl)thiazol-5-yl)methyl)-10, 11-dihydrodibenzo [b, f] [1, 4] thiazepine-8-carboxamide 5,5-dioxide] | 1.3 | 95
Cc1cc2c(cc1C(=O)NCc1cnc(C(F)(F)F)s1)NC(=O)c1ccccc1S2(=O)=O [compound 1910] | 19 | 94

SMILES | activity at 10 µM [1] [%] | AD38 Viability Normalized Result (cmpd/DMSO %) at 10 μM [2] [%]
Cc1cc2c(cc1C(=O)NCc1cnc(-c3ccc(C#N)cc3)s1)NC(=O)c1ccccc1S2(=O)=O [compound 1911] | 0.4 | 111
N#Cc1ccc(-c2ncc(CNC(=O)c3cc4c(cc3Cl)Oc3ccccc3C(=O)N4)s2)cc1 [compound 1913] | 68.1 | 111
Cc1c(C(=O)NCc2cnc(C(F)(F)F)s2)cc(Br)c2c1NC(=O)c1ccccc1S2 [compound 1914] | 120 | 77
Cc1c(C(=O)NCc2cnc(-c3ccc(C#N)cc3)s2)cc(Br)c2c1NC(=O)c1ccccc1S2 [compound 1915] | 15.7 | 100
CCCN1c2ccc(C(=O)NCc3cnc(C(F)(F)F)s3)cc2NC(=O)c2ccccc21 [compound 1916] | 15.5 | 103
CCCN1c2ccc(C(=O)NCc3cnc(-c4ccc(C#N)cc4)s3)cc2NC(=O)c2ccccc21 [compound 1917] | 1.1 | 108
C=CCN1c2ccc(C(=O)NCc3cnc(C(F)(F)F)s3)cc2NC(=O)c2ccccc21 [compound 1920] | 48.8 | 85
C=CCN1c2ccc(C(=O)NCc3cnc(-c4ccc(C#N)cc4)s3)cc2NC(=O)c2ccccc21 [compound 1921] | 1.2 | 101
CCCCN1c2ccc(C(=O)NCc3cnc(C(F)(F)F)s3)cc2NC(=O)c2ccccc21 [compound 1922] | 60.3 | 39
O=C(NCc1cnc(CN2CCOCC2)s1)c1ccc2c(c1)NC(=O)c1ccccc1S2(=O)=O [compound 1927] | 4.7 | 92
O=C(NCc1cnc(C(=O)c2ccccc2)s1)c1ccc2c(c1)NC(=O)c1ccccc1S2(=O)=O [compound 1929] | 1.2 | 93
O=C1Cc2cccc(-c3ncc(CNC(=O)c4ccc5c(c4)NC(=O)c4ccccc4S5(=O)=O)s3)c2N1 [compound 1930] | 23.8 | 91
O=C(NCc1cnc(-c2ccc(NC(=O)C3CC3)cc2)s1)c1ccc2c(c1)NC(=O)c1ccccc1S2(=O)=O [compound 1931] | 8.5 | 97
CC(=O)Nc1ccc(-c2ncc(CNC(=O)c3ccc4c(c3)NC(=O)c3ccccc3S4(=O)=O)s2)cc1 [compound 1932] | 2.2 | 101
O=C(NCc1cnc(C(F)(F)F)s1)c1cc2c(cc1Cl)S(=O)(=O)c1ccccc1C(=O)N2 [compound 1934] | 40 | 69
